Literature values as cited in patent US8846607B2, “Particles for treatment of pulmonary infection” (President and Fellows of Harvard College, priority 2004, dated 2014).

Tested on: non-replicating TB
Conditions: after one month, non-replicating TB in vitro

## capreomycin
  log decrease in colony forming units (CFU): one to two
